Read-outs that look alike come from different tables or passages of the source.
What was measured:
Assay in all cases: Broad kinase panel screening
Type in all cases: biochemical
MLK1/MAP3K9 = MLK1/MAP3K9 (Homo sapiens (Human), UniProt P80192)
Text: (§1) Example 16: Broad Kinase Panel Screening (359)
(§2) Major hits out of 359 were: ALK, ARK, c-MER, CLK1, DYRK, GSK3a, GSK3b, FLT2, FLT3, MLK1, SIK2, TNIK, and YSK4.

GSK3a = GSK3a (Homo sapiens (Human), UniProt P49840)
Text: as §1, §2

CLK1 = CLK1 (Homo sapiens (Human), UniProt P49759)
Text: as §1, §2

ALK2/ACVR1 = ALK2/ACVR1 (Homo sapiens (Human), UniProt Q04771)
Text: as §1, §2

DDR1 = DDR1 (Homo sapiens (Human), UniProt Q08345)
Text: as §1, §2

PIM1 = PIM1 (Homo sapiens (Human), UniProt P11309)
Text: as §1, §2

ALK1/ACVRL1 = ALK1/ACVRL1 (Homo sapiens (Human), UniProt P37023)
Text: as §1, §2

GSK3b = GSK3b (Homo sapiens (Human), UniProt P49841)
Text: as §1, §2

SIK2 = SIK2 (Homo sapiens (Human), UniProt Q9H0K1)
Text: as §1, §2

PKCmu/PRKD1 = PKCmu/PRKD1 (Homo sapiens (Human), UniProt Q15139)
Text: as §1, §2

MLK3/MAP3K11 = MLK3/MAP3K11 (Homo sapiens (Human), UniProt Q16584)
Text: as §1, §2

DYRK2 = DYRK2 (Homo sapiens (Human), UniProt Q92630)
Text: as §1, §2

Chain of MLK3/MAP3K11 (Q16584 whole entry): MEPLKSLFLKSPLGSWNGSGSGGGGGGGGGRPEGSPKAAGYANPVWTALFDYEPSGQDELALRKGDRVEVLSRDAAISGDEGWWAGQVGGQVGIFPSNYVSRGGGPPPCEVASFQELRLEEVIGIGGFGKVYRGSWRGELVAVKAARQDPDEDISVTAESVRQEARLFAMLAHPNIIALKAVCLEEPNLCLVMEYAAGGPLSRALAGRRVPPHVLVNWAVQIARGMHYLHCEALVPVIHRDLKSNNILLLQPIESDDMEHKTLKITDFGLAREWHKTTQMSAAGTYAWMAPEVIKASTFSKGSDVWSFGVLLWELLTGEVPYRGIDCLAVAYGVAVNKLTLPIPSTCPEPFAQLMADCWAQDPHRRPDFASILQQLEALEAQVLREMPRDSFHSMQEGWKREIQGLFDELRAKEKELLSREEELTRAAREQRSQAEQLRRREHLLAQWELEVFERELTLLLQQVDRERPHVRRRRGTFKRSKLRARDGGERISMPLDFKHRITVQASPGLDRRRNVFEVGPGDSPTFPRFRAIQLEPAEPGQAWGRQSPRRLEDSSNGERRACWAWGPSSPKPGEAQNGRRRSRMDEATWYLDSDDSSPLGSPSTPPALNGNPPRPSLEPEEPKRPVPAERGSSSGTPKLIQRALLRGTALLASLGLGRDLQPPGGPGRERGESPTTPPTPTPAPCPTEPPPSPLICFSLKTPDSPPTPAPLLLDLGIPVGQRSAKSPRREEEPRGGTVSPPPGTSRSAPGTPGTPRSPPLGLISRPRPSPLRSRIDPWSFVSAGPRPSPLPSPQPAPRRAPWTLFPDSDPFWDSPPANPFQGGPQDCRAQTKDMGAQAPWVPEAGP
Chain of GSK3a (P49840 whole entry, species assumed): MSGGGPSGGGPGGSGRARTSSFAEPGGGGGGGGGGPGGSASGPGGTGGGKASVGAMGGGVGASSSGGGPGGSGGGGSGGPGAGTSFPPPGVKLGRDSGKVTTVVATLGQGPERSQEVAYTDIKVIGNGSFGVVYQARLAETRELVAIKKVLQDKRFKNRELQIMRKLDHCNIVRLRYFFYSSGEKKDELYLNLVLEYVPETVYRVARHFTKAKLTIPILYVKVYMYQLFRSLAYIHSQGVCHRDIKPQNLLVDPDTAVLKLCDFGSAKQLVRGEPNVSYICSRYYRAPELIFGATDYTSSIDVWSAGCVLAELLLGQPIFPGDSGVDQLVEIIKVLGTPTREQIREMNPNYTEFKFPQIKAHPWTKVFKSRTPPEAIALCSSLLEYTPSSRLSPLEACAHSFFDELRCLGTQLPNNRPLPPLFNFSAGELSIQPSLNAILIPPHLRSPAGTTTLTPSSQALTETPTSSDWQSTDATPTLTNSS
Chain of PIM1 (P11309 whole entry, species assumed): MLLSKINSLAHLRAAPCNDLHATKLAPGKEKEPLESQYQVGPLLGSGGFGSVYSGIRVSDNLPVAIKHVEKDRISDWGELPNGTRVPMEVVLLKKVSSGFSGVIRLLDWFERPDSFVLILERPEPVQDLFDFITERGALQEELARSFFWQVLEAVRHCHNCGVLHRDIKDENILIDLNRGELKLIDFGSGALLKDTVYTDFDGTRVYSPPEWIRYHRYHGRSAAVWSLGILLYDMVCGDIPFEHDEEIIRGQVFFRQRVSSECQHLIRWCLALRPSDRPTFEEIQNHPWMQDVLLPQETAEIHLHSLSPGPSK
Chain of GSK3b (P49841 whole entry, species assumed): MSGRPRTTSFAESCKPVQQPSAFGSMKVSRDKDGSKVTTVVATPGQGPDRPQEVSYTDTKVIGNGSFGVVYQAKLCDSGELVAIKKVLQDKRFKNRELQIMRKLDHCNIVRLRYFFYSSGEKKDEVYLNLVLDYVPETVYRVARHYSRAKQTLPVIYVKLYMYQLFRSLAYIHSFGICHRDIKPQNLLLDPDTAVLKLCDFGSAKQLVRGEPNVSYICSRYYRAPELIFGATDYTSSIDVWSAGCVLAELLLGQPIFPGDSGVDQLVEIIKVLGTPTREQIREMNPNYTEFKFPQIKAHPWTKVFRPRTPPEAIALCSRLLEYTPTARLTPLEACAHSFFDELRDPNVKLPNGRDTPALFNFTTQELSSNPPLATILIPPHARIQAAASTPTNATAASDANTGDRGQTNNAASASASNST
Chain of CLK1 (P49759 whole entry): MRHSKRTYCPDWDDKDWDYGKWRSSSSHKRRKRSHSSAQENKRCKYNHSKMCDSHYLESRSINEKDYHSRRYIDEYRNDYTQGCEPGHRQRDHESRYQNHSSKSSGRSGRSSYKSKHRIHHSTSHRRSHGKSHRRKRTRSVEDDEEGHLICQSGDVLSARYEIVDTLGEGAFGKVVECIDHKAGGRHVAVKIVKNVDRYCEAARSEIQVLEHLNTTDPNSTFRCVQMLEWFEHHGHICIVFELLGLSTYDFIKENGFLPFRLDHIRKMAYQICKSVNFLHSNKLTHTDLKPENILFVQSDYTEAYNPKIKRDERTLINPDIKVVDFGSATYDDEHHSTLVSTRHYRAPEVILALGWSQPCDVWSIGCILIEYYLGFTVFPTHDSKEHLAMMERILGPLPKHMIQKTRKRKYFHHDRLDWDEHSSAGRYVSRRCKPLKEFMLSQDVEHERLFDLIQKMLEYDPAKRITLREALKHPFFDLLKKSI
Chain of SIK2 (Q9H0K1 whole entry, species assumed): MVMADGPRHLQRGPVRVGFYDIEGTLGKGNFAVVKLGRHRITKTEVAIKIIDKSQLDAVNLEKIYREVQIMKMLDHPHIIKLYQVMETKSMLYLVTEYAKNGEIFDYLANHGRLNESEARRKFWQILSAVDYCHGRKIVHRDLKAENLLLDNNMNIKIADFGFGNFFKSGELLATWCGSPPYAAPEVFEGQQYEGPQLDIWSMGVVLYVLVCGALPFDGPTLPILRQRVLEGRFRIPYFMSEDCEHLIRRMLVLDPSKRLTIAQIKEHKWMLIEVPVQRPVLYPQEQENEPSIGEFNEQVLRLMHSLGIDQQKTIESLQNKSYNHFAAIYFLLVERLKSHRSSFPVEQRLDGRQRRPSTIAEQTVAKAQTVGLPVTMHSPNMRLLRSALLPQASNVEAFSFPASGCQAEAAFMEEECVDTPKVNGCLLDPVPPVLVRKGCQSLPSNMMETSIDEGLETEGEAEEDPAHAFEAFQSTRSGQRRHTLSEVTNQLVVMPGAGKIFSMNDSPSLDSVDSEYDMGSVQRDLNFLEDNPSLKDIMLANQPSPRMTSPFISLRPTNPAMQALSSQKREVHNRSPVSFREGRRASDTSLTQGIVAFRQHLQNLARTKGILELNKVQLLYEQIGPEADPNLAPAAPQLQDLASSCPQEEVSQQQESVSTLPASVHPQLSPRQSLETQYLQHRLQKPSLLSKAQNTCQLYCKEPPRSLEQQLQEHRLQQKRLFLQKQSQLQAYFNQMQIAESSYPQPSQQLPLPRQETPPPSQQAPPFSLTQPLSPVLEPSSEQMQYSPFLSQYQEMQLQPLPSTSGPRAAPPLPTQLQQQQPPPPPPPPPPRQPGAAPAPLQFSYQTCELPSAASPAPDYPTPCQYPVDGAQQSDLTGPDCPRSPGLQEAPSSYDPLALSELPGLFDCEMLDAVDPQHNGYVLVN
Chain of MLK1/MAP3K9 (P80192 whole entry): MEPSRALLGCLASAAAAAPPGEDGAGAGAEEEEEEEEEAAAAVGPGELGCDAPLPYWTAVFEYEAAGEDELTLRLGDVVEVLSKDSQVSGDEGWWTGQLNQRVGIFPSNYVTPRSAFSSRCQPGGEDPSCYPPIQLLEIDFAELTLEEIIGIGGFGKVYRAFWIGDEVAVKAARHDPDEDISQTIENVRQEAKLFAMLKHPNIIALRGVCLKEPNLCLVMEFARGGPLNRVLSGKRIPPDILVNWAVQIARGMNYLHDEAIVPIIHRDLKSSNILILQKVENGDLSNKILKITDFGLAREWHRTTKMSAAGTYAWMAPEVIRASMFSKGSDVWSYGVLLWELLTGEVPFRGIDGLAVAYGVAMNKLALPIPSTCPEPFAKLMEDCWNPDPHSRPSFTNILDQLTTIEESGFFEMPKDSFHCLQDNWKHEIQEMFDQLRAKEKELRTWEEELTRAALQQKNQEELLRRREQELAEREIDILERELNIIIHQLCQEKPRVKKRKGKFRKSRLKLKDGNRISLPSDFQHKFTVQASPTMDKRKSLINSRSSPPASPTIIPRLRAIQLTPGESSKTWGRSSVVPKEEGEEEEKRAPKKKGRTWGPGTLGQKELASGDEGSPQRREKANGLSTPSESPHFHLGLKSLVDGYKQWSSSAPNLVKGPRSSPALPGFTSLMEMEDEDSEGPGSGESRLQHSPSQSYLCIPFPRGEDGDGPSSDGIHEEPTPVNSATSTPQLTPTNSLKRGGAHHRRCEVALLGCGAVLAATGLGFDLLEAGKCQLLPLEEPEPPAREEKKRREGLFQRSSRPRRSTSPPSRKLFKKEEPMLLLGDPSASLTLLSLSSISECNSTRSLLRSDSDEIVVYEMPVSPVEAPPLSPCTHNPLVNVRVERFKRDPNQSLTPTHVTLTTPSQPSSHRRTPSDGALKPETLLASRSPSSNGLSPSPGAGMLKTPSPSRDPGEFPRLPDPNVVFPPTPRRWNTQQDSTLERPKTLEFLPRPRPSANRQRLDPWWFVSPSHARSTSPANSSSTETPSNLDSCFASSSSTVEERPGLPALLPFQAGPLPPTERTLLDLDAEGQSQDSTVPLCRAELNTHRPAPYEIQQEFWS

`CN(C)CCC1CCN(CCS(=O)(=O)c2ccc(-c3cnc(N)c(C(=O)Nc4ccccc4)n3)cc2)CC1` [Compound 5, 3-amino-6-(4-((2-(4-(2-(dimethylamino)ethyl)piperidin-1-yl)ethyl)sulfonyl)phenyl)-N-phenylpyrazine-2-carboxamide] was tested, and the IC50 (MLK1/MAP3K9) was 11.3 nM, the IC50 (GSK3a; read-out: IC50 nM) was 5.73 nM and the IC50 (GSK3a; read-out: IC50) was 5.73 nM. The IC50 (CLK1) was 134 nM, the IC50 (ALK2/ACVR1) was 16.6 nM and the IC50 (DDR1) was 191 nM. It also gave an IC50 (PIM1; read-out: IC50 nM) of 72.6 nM, an IC50 (PIM1; read-out: IC50) of 72.6 nM and an IC50 (ALK1/ACVRL1) of 35.7 nM. It also gave an IC50 (GSK3b; read-out: IC50 nM) of 63 nM, an IC50 (GSK3b; read-out: IC50) of 63 nM and an IC50 (SIK2) of 149 nM. The IC50 (PKCmu/PRKD1) was 134 nM, the IC50 (MLK3/MAP3K11; read-out: IC50 nM) was 5.9 nM and the IC50 (MLK3/MAP3K11; read-out: IC50) was 5.9 nM. It also gave an IC50 (DYRK2) of 71.8 nM.

Source: patent US11787781B2, “Inhibiting ataxia telangiectasia and RAD3-related protein (ATR)” (Celator Pharmaceuticals, Inc., priority 2016, dated 2023)
